≈ marks a conversion by molar mass, not a printed value.
Key:
Type in all cases: functional
Staphylococcus aureus = assay: In vitro antibacterial activity against Staphylococcus aureus X1.1
Haemophilus influenzae = assay: In vitro antibacterial activity against Haemophilus influenza C.L
Klebsiella aerogenes = assay: In vitro antibacterial activity against Enterobacter aerogenes C32
Escherichia coli = assay: In vitro antibacterial activity against Escherichia coli EC14
Klebsiella pneumoniae = assay: In vitro antibacterial activity against Klebsiella X26
Streptococcus pneumoniae = assay: In vitro antibacterial activity against Streptococcus pneumoniae PARK
[1] = system: Staphylococcus epidermidis; assay: In vitro antibacterial activity against Staphylococcus epidermidis 222
Pseudomonas aeruginosa = assay: In vitro antibacterial activity against Pseudomonas PS72

SMILES	MIC (Staphylococcus aureus) [µg/mL]	MIC (Haemophilus influenzae) [µg/mL]	MIC (Klebsiella aerogenes) [µg/mL]	MIC (Escherichia coli) [µg/mL]	MIC (Klebsiella pneumoniae) [µg/mL]	MIC (Streptococcus pneumoniae) [µg/mL]	MIC [1] [µg/mL]	MIC (Pseudomonas aeruginosa) [µg/mL]
CC(C)=CCO/N=C(/C(=O)N[C@H]1CN2CC(S(C)(=O)=O)=C(C(=O)O)N2C1=O)c1csc(N)n1	4 (≈ 8.02 µM)	0.25 (≈ 0.501 µM)	2 (≈ 4.01 µM)	0.5 (≈ 1 µM)	0.06 (≈ 0.12 µM)	0.06 (≈ 0.12 µM)	8 (≈ 16 µM)	> 128
CCCS(=O)(=O)C1=C(C(=O)O)N2C(=O)[C@@H](NC(=O)/C(=N/OCCF)c3csc(N)n3)CN2C1	16 (≈ 31.7 µM)	0.125 (≈ 0.248 µM)	0.25 (≈ 0.496 µM)	0.125 (≈ 0.248 µM)	0.03 (≈ 0.0595 µM)	0.125 (≈ 0.248 µM)	32 (≈ 63.4 µM)	> 128
CCS(=O)(=O)C1=C(C(=O)O)N2C(=O)[C@@H](NC(=O)/C(=N/OCSC)c3csc(N)n3)CN2C1	16 (≈ 31.7 µM)	0.5 (≈ 0.991 µM)	0.5 (≈ 0.991 µM)	0.25 (≈ 0.495 µM)	0.06 (≈ 0.119 µM)	0.125 (≈ 0.248 µM)	64 (≈ 127 µM)	> 128
C=CCCCO/N=C(/C(=O)N[C@H]1CN2CC(S(C)(=O)=O)=C(C(=O)O)N2C1=O)c1csc(N)n1	8 (≈ 16 µM)	0.25 (≈ 0.501 µM)	1 (≈ 2.01 µM)	0.25 (≈ 0.501 µM)	0.06 (≈ 0.12 µM)	0.5 (≈ 1 µM)	8 (≈ 16 µM)	128 (≈ 257 µM)
CCS(=O)(=O)C1=C(C(=O)O)N2C(=O)[C@@H](NC(=O)/C(=N/OCCBr)c3csc(N)n3)CN2C1	8 (≈ 14.5 µM)	0.25 (≈ 0.453 µM)	0.25 (≈ 0.453 µM)	0.06 (≈ 0.109 µM)	0.015 (≈ 0.0272 µM)	0.125 (≈ 0.227 µM)	8 (≈ 14.5 µM)	> 128
CS(=O)(=O)C1=C(C(=O)O)N2C(=O)[C@@H](NC(=O)/C(=N/OCCF)c3csc(N)n3)CN2C1	16 (≈ 33.6 µM)	0.25 (≈ 0.525 µM)	0.06 (≈ 0.126 µM)	0.015 (≈ 0.0315 µM)	0.03 (≈ 0.063 µM)	0.06 (≈ 0.126 µM)	16 (≈ 33.6 µM)	128 (≈ 269 µM)
CC(C)(O/N=C(/C(=O)N[C@H]1CN2CC(C#N)=C(C(=O)O)N2C1=O)c1csc(N)n1)C(=O)O	> 128	0.06 (≈ 0.129 µM)	0.125 (≈ 0.27 µM)	0.03 (≈ 0.0647 µM)	0.25 (≈ 0.539 µM)	16 (≈ 34.5 µM)	> 128	64 (≈ 138 µM)
Nc1nc(/C(=N\OCCCl)C(=O)N[C@H]2CN3CC(S(=O)(=O)c4ccccc4)=C(C(=O)O)N3C2=O)cs1	16 (≈ 28.8 µM)	0.25 (≈ 0.45 µM)	4 (≈ 7.21 µM)	1 (≈ 1.8 µM)	0.06 (≈ 0.108 µM)	0.06 (≈ 0.108 µM)	32 (≈ 57.7 µM)	> 128
CCS(=O)(=O)C1=C(C(=O)O)N2C(=O)[C@@H](NC(=O)/C(=N/OCC3CC3)c3csc(N)n3)CN2C1	16 (≈ 32.1 µM)	0.125 (≈ 0.251 µM)	0.25 (≈ 0.501 µM)	0.06 (≈ 0.12 µM)	0.015 (≈ 0.0301 µM)	0.06 (≈ 0.12 µM)	32 (≈ 64.2 µM)	> 128
Nc1nc(/C(=N\OCCCl)C(=O)N[C@H]2CN3CC(S(=O)(=O)Cc4ccccc4)=C(C(=O)O)N3C2=O)cs1	8 (≈ 14.1 µM)	0.5 (≈ 0.879 µM)	4 (≈ 7.03 µM)	2 (≈ 3.51 µM)	0.03 (≈ 0.0527 µM)	0.06 (≈ 0.105 µM)	16 (≈ 28.1 µM)	> 128
N#CC1=C(C(=O)O)N2C(=O)[C@@H](NC(=O)Cc3cccs3)CN2C1	8 (≈ 24.1 µM)	16 (≈ 48.1 µM)	64 (≈ 193 µM)	16 (≈ 48.1 µM)	32 (≈ 96.3 µM)	2 (≈ 6.02 µM)	32 (≈ 96.3 µM)	> 128
C#CCO/N=C(/C(=O)N[C@H]1CN2CC(S(C)(=O)=O)=C(C(=O)O)N2C1=O)c1csc(N)n1	32 (≈ 68.3 µM)	0.25 (≈ 0.534 µM)	0.5 (≈ 1.07 µM)	0.25 (≈ 0.534 µM)	0.125 (≈ 0.267 µM)	0.25 (≈ 0.534 µM)	32 (≈ 68.3 µM)	> 128
CS(=O)(=O)C1=C(C(=O)O)N2C(=O)[C@@H](NC(=O)/C(=N/OCC#N)c3csc(N)n3)CN2C1	64 (≈ 136 µM)	2 (≈ 4.26 µM)	0.5 (≈ 1.07 µM)	0.25 (≈ 0.533 µM)	0.25 (≈ 0.533 µM)	0.25 (≈ 0.533 µM)	128 (≈ 273 µM)	> 128
C=CCO/N=C(/C(=O)N[C@H]1CN2CC(S(=O)(=O)CCC)=C(C(=O)O)N2C1=O)c1csc(N)n1	16 (≈ 32.1 µM)	0.25 (≈ 0.501 µM)	0.5 (≈ 1 µM)	0.5 (≈ 1 µM)	0.06 (≈ 0.12 µM)	0.06 (≈ 0.12 µM)	32 (≈ 64.2 µM)	> 128
CCCS(=O)(=O)C1=C(C(=O)O)N2C(=O)[C@@H](NC(=O)/C(=N/OCCBr)c3csc(N)n3)CN2C1	8 (≈ 14.1 µM)	0.125 (≈ 0.221 µM)	0.5 (≈ 0.884 µM)	0.25 (≈ 0.442 µM)	0.03 (≈ 0.0531 µM)	0.06 (≈ 0.106 µM)	8 (≈ 14.1 µM)	> 128
CS(=O)(=O)C1=C(C(=O)O)N2C(=O)[C@@H](NC(=O)/C(=N/OCC(=O)O)c3csc(N)n3)CN2C1	> 128	1 (≈ 2.05 µM)	0.25 (≈ 0.512 µM)	0.06 (≈ 0.123 µM)	0.125 (≈ 0.256 µM)	2 (≈ 4.09 µM)	> 128	128 (≈ 262 µM)
N#CC1=C(C(=O)O)N2C(=O)[C@@H](NC(=O)Cc3ccccc3)CN2C1	16 (≈ 49 µM)	32 (≈ 98.1 µM)	128 (≈ 392 µM)	32 (≈ 98.1 µM)	32 (≈ 98.1 µM)	8 (≈ 24.5 µM)	32 (≈ 98.1 µM)	> 128
N#CC1=C(C(=O)O)N2C(=O)[C@@H](NC(=O)CSc3cc(Cl)ccc3Cl)CN2C1	1 (≈ 2.34 µM)	8 (≈ 18.7 µM)	> 128	> 128	8 (≈ 18.7 µM)	0.125 (≈ 0.293 µM)	4 (≈ 9.36 µM)	> 128
C=CCO/N=C(/C(=O)N[C@H]1CN2CC(S(=O)(=O)CC=C)=C(C(=O)O)N2C1=O)c1csc(N)n1	8 (≈ 16.1 µM)	0.25 (≈ 0.503 µM)	0.5 (≈ 1.01 µM)	0.125 (≈ 0.252 µM)	0.03 (≈ 0.0604 µM)	0.125 (≈ 0.252 µM)	32 (≈ 64.4 µM)	> 128
N#CC1=C(C(=O)O)N2C(=O)[C@@H](NC(=O)Cc3csc(N)n3)CN2C1	32 (≈ 91.9 µM)	32 (≈ 91.9 µM)	32 (≈ 91.9 µM)	16 (≈ 45.9 µM)	16 (≈ 45.9 µM)	2 (≈ 5.74 µM)	64 (≈ 184 µM)	> 128
CS(=O)(=O)C1=C(C(=O)O)N2C(=O)[C@@H](NC(=O)/C(=N/OCCCl)c3csc(N)n3)CN2C1	16 (≈ 32.5 µM)	0.5 (≈ 1.01 µM)	0.125 (≈ 0.254 µM)	0.125 (≈ 0.254 µM)	0.03 (≈ 0.0609 µM)	0.25 (≈ 0.507 µM)	32 (≈ 64.9 µM)	> 128
CC(C)(O/N=C(/C(=O)N[C@H]1CN2CC(S(C)(=O)=O)=C(C(=O)O)N2C1=O)c1csc(N)n1)C(=O)O	> 128	0.06 (≈ 0.116 µM)	0.06 (≈ 0.116 µM)	0.03 (≈ 0.0581 µM)	0.125 (≈ 0.242 µM)	2 (≈ 3.87 µM)	> 128	8 (≈ 15.5 µM)
N#CC1=C(C(=O)O)N2C(=O)[C@@H](NC(=O)/C(=N/OCCF)c3csc(N)n3)CN2C1	32 (≈ 75.6 µM)	0.25 (≈ 0.59 µM)	0.125 (≈ 0.295 µM)	0.03 (≈ 0.0709 µM)	0.03 (≈ 0.0709 µM)	0.25 (≈ 0.59 µM)	16 (≈ 37.8 µM)	128 (≈ 302 µM)
N#CC1=C(C(=O)O)N2C(=O)[C@@H](NC(=O)/C(=N/OCc3ccccc3)c3csc(N)n3)CN2C1	8 (≈ 17.1 µM)	0.25 (≈ 0.535 µM)	8 (≈ 17.1 µM)	8 (≈ 17.1 µM)	0.125 (≈ 0.267 µM)	0.06 (≈ 0.128 µM)	8 (≈ 17.1 µM)	> 128

Reference: ChEMBL document CHEMBL1126865, “Structure-activity relationship within a series of pyrazolidinone antibacterial agents. 2. Effect of side-chain modification on in vitro activity and pharmacokinetic parameters” (J Med Chem, 1993)
